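Cells were grown in 96-well plates and exposed to each compound for 48 hours at five concentrations; endpoints were interpolated linearly between bracketing concentrations, or set to the highest concentration if not reached. At the TGI there is no net growth.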
Columns and labels:
Assay in all cases: NCI-60 cell line screen, 48 h
[1] = test system: ACHN renal
[2] = test system: HT29 colon
[3] = test system: K-562 leukemia
[4] = test system: M14 melanoma
[5] = test system: MDA-N
[6] = test system: SK-MEL-2 melanoma
[7] = test system: SN12C renal
[8] = test system: SNB-19 CNS
[9] = test system: SNB-75 CNS
[10] = test system: SW-620 colon
[11] = test system: U251 CNS
[12] = test system: HOP-92 NSCLC
[13] = test system: KM12 colon

Cc1cccc(N=NC(=O)NNc2cccc(C)c2C)c1C
TGI [1]: 95.7 µM | TGI [2]: > 100 µM | TGI [3]: > 100 µM | TGI [4]: > 100 µM | TGI [5]: > 100 µM | TGI [6]: 46.7 µM | TGI [7]: > 100 µM | TGI [8]: > 100 µM | TGI [9]: > 100 µM | TGI [10]: > 100 µM | TGI [11]: > 100 µM

NC(Cc1ccccc1)C(=O)N[C@H]1c2ccsc2/C(=N/O)[C@H]1O (stereo partly specified)
TGI [12]: > 100 µM | TGI [2]: > 100 µM | TGI [3]: > 100 µM | TGI [4]: > 100 µM | TGI [5]: > 100 µM | TGI [6]: > 100 µM | TGI [7]: > 100 µM | TGI [10]: > 100 µM | TGI [11]: > 100 µM

Cc1c(S(=O)(=O)/N=C(\NO)Nc2ccc(Cl)c(Cl)c2)sc2ccc(Cl)cc12
TGI [1]: 25.8 µM | TGI [12]: 43.8 µM | TGI [2]: 29.3 µM | TGI [3]: 71.4 µM | TGI [13]: 38.6 µM | TGI [4]: 44.1 µM | TGI [5]: 34.8 µM | TGI [6]: 38.6 µM | TGI [7]: 35.8 µM | TGI [8]: 45.1 µM | TGI [10]: > 100 µM | TGI [11]: 49.9 µM

O=C1/C(=N/O)Cc2c(Br)ccc(Br)c21
TGI [1]: > 100 µM | TGI [12]: > 100 µM | TGI [2]: > 100 µM | TGI [3]: 84.5 µM | TGI [13]: > 100 µM | TGI [4]: > 100 µM | TGI [5]: > 100 µM | TGI [6]: 48.4 µM | TGI [9]: > 100 µM | TGI [10]: > 100 µM | TGI [11]: > 100 µM

CN1CCC(O)(C(C)(C)C)CC1
TGI [1]: > 100 µM | TGI [2]: > 100 µM | TGI [3]: > 100 µM | TGI [13]: > 100 µM | TGI [4]: > 100 µM | TGI [5]: > 100 µM | TGI [6]: > 100 µM | TGI [7]: > 100 µM | TGI [8]: > 100 µM | TGI [9]: > 100 µM | TGI [10]: > 100 µM | TGI [11]: > 100 µM

COc1cc(/C=C2/C[C@H]3[C@@H]4CC=C5C[C@@H](O)CC[C@]5(C)[C@H]4CC[C@]3(C)NC2=O)cc(OC)c1OC
TGI [1]: 58 µM | TGI [12]: 25 µM | TGI [2]: > 80.7 µM | TGI [3]: > 100 µM | TGI [13]: > 100 µM | TGI [4]: > 100 µM | TGI [5]: > 100 µM | TGI [6]: > 62.9 µM | TGI [7]: > 64.2 µM | TGI [8]: > 84.7 µM | TGI [10]: > 100 µM | TGI [11]: > 60.1 µM

Nc1nc(N)c2ncn(-c3ccc(Cl)cc3)c2n1
TGI [1]: > 100 µM | TGI [12]: > 100 µM | TGI [2]: > 100 µM | TGI [13]: > 100 µM | TGI [4]: > 100 µM | TGI [5]: > 100 µM | TGI [6]: > 100 µM | TGI [7]: > 100 µM | TGI [9]: 59.1 µM | TGI [11]: > 100 µM

Cc1ccc2c(c1)C(C(=O)N[C@@H]1C(=O)N3[C@@H]1SC(C)(C)[C@@H]3C(=O)O)OCCC2 (stereo partly specified)
TGI [1]: > 100 µM | TGI [12]: > 100 µM | TGI [2]: > 100 µM | TGI [3]: > 100 µM | TGI [13]: > 100 µM | TGI [4]: > 100 µM | TGI [6]: > 100 µM | TGI [7]: > 100 µM | TGI [8]: > 100 µM | TGI [9]: > 100 µM | TGI [10]: > 100 µM | TGI [11]: > 100 µM

O=C1CC(=Nc2ccc(Cl)cc2)C(c2ccccc2)N1c1ccccc1 (stereo unspecified)
TGI [1]: > 100 µM | TGI [12]: 54.6 µM | TGI [2]: 37.4 µM | TGI [3]: > 100 µM | TGI [13]: > 100 µM | TGI [4]: 33.8 µM | TGI [5]: 10.8 µM | TGI [6]: 7.92 µM | TGI [7]: > 100 µM | TGI [8]: > 100 µM | TGI [10]: > 100 µM | TGI [11]: > 100 µM
